From US12077503B2, “Substituted cyclic amides and their use as herbicides” (FMC CORPORATION, priority 2015, dated 2024)

Columns and labels:
[1] = test system: barnyardgrass (Echinochloa crus-galli); experiment: Test C flooded paddy test; assay type: in vivo; conditions: Flood; for Plant response rating (scale of 0 to 100), Barnyardgrass: 0 is no effect, 100 is complete control
How it was run: (§1)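 Test compounds were dosed straight into the flood water of pots holding 2-leaf-stage plants, with water kept 3 cm above the soil. Greenhouse plants were scored visually against controls after 13 to 15 d, from 0 (no effect) to 100 (complete control).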

[2] = test system: sedge, umbrella (small-flower umbrella sedge, Cyperus difformis); experiment: Test C flooded paddy test; assay type: in vivo; conditions: Flood; for Plant response rating (scale of 0 to 100), Sedge, Umbrella: 0 is no effect, 100 is complete control
How it was run: as §1

[3] = 31 g ai/ha, scale 0 to 100 (0 no effect, 100 complete control), 13 to 15 d

Compound	Plant response rating, Barnyardgrass [1, 3]	Plant response rating (scale of 0 to 100), Barnyardgrass ([1]; 62 g ai/ha)	Plant response rating (scale of 0 to 100), Barnyardgrass ([1]; 125 g ai/ha)	Plant response rating (scale of 0 to 100), Barnyardgrass ([1]; 250 g ai/ha)	Plant response rating, Sedge, Umbrella [2, 3]	Plant response rating (scale of 0 to 100), Sedge, Umbrella ([2]; 62 g ai/ha)	Plant response rating (scale of 0 to 100), Sedge, Umbrella ([2]; 125 g ai/ha)	Plant response rating (scale of 0 to 100), Sedge, Umbrella ([2]; 250 g ai/ha)	Plant response rating (scale of 0 to 100), Barnyardgrass ([1]; 31 g ai/ha)	Plant response rating (scale of 0 to 100), Sedge, Umbrella ([2]; 31 g ai/ha)
O=C1NCC(c2cccc(OC(F)(F)C(F)F)c2)C1C(=O)Nc1ccccc1F (racemic) [Compound 695]	20	60	65	70	0	0	0	0		
CN1CC(c2ccc(F)c(C(F)(F)F)c2)C(C(=O)Nc2cccc(F)c2F)C1=O (stereo not shown) [Compound 613]		30	50	60		0	0	0	0	0
